The results in this text go back to paper PMC8878317, “Chemogenomics identifies acetyl-coenzyme A synthetase as a target for malaria treatment and prevention” (Cell Chemical Biology, 2022).

What all share (assay type): cell-based
One assay has as its system P. falciparum 3D7-A10. As to the kind of experiment: Blood-stage dose-response assay (SYBR Green I, 72 hr), 3D7 / 3D7-A10 parent. To be noted: Plasmodium falciparum, mean ± SD, n bioreplicates, read-out: 3D7-A10 parent EC50 ± SD. On the procedure:
(§1) The 3D7-A10 clone has been used in previous in vitro drug selection and sequencing efforts ([Cowell et al., 2018]). Dd2 parasites were obtained from T. Wellems (NIAID, NIH). Dd2-B2 is a genetically homogeneous line that was cloned from Dd2 by limiting dilution in the Fidock lab. Parasite strains were cultured in 3-5% human O+ hematocrit in RPMI 1640 (Life Technologies) supplemented with 28 mM NaHCO3, 25 mM HEPES, and hypoxanthine ([…]). Depending on the parasite line, the media either contained gentamycin (25 μg/mL), or no antibiotic and was additionally supplemented with 0.5% AlbuMAX II (Life Technologies) and/or O+ human serum (heat inactivated and pooled). Blood and serum products were obtained from Interstate Blood Bank. Cultures were maintained at 37°C in 1.1% O2, 4% CO2, and 95% N2. Parasite populations were synchronized by 5% sorbitol treatment ([Lambros and Vanderberg, 1979]).
(§2) For in vitro–selected lines, drug susceptibility was measured by SYBR Green I–based assay ([Johnson et al., 2007]; [Smilkstein et al., 2004]). Ring-stage parasites were cultured for 72 hr at 1% hematocrit and 1% starting parasitemia in 384-well black clear-bottom plates containing test compounds plated in triplicate in 12-point serial dilutions. Lysis buffer (0.16% w/v saponin, 1.6% Triton X-100, 5 mM EDTA, and 20 mM Tris-HCl, pH 7.4) with SYBR Green I fluorescent dye (Invitrogen) was added, and fluorescence readings were taken (excitation at 494 nm, emission at 530 nm). Alternatively, Dd2-B2 ring-stage cultures at 0.3% parasitemia and 1% hematocrit were exposed for 72 hr to a range of ten drug concentrations that were 2-fold serially diluted in duplicates along with drug-free controls. Parasite survival was assessed by flow cytometry on an Accuri C6 (BD Biosciences) using SYBR Green and MitoTracker Deep Red FM (Life Technologies) as nucleic acid stain and vital dyes respectively. EC50 values were calculated using a nonlinear regression curve fit in Prism Software version 8 (GraphPad).

The subject of another assay is P. falciparum Dd2-B2. The assay is described as follows: Blood-stage dose-response assay (72 hr), Dd2 / Dd2-B2 parent. To be noted: Plasmodium falciparum, DD2, read-out: Dd2-B2 parent EC50 ± SD (nM). On the procedure: as §1, §2
Assay [1] has as its system P. falciparum Dd2:A597V (CRISPR edited PfAcAS). As to the kind of experiment: Blood-stage dose-response assay, CRISPR-edited Dd2:A597V line. To be noted: Plasmodium falciparum, mean ± SD, n bioreplicates. How it is done: as §2
(§3) Mutant PfAcAS-A597V and PfAcAS-T648M parasites were generated using CRISPR/Cas9. The guide RNAs for PfAcAS-A597V (5′-[…]-3′; 5′-[…]-3′) and for PfAcAS-T648M (5′-[…]-3′) were designed using Benchling (https://benchling.com/) to targeting sites in PfAcAS that were 6-14 bp upstream of the A597 codon and 6 bp downstream of the T648 codon respectively. Complementary oligos encoding the gRNA sequences (5′- tatt[…]-3’ / 5’-aaac[…]-3’; 5’-tatt[…]-3’ / 5’-aaac[…]-3’ and 5’- tattg[…]-3’ / 5’-aaac[…]c-3’ ) were phosphorylated using T4 polynucleotide kinase and annealed (95°C for 5 min, then step down of 5°C/min to 25°C) prior to ligation into the BbsI-digested pDC2-coCas9-U6.2-hDHFR plasmid ([Lim et al., 2016]). The donor template for PfAcAS-A597V was synthesized (ThermoFisher) as a 700 bp Genestring fragment spanning position 1468 to 2168 of the PfAcAS gene, and the donor for PfAcAS-T648M synthesized as a 829 bp fragment spanning position 1468 to 2297 and inserted into the AatII/EcoRI sites of the pDC2-coCas9-gRNA-hDHFR plasmid by Gibson assembly. Ring-stage parasites (Dd2) at 5% parasitemia were transfected by electroporation (BioRad Gene Pulser II at 0.310 kV and 950 μF) with 50 μg of each plasmid (plasmid 1: pDC2-coCas9-AcAS-A597V-gRNA1-hDHFR, plasmid 2: pDC2-coCas9-gRNA2-hDHFR, or plasmid 3: pDC2-coCas9-AcAS-T648M-gRNA1-hDHFR), and parasites selected for 10 days with 2.5 nM WR99210 (Jacobus Pharmaceuticals), followed by removal of drug pressure. After confirmation of editing in the bulk culture, clones were isolated by serial limiting dilution and confirmed by Sanger sequencing after PCR amplification from genomic DNA using forward primer 5′-[…]-3′ and reverse primer 5′-[…]-3′ (for A597V) and 5′-[…]-3′ (for T648M).

Assay [2] deals with P. falciparum Dd2:T648M (CRISPR edited PfAcAS). As to the kind of experiment: Blood-stage dose-response assay, CRISPR-edited Dd2:T648M line. To be noted: Plasmodium falciparum, mean ± SD, n bioreplicates. On the procedure:
as §2, §3

In assay [3] the test system is histone acetylation in P. falciparum 3D7-A10. As to the kind of experiment: Histone acetylation Western blot, wild-type 3D7-A10. As to conditions: trophozoites, 3 h exposure. Background: Immunoblotting shows a protein as a band on a membrane.
Protocol: Synchronous trophozoite-stage (24-32hr post-invasion) cultures at 3–5% parasitemia and 2% hematocrit in complete medium were exposed to test compounds for 3 hr at 37°C. […] DMSO was tested at 0.1% as the vehicle-only control. Following drug exposure, parasites were isolated via saponin lysis ice-cold 0.1% saponin in phosphate-buffered saline (PBS). Isolated parasites were washed 3x in ice-cold PBS containing protease inhibitor cocktail (cOmplete mini, Roche) and lysed in 1x Laemmli Sample Buffer (Biorad) with 5% beta-mercaptoethanol (Sigma-Aldrich). Samples were heated at 99°C for 10 min before centrifugation. Equal quantities of solute were separated on Protean TGX Precast Gels (4–20% gradient) in Tris-SDS-glycine buffer, transferred to nitrocellulose membrane by iblot (Invitrogen), and blocked for 1h in tris-buffered saline (TBS) with 5% skim milk powder. Blocked membranes were probed with antibodies recognising tetra-acetylated H4 (H4ac4, Sigma-Aldrich 06–866), H4K8ac (CST #2594), H3K9ac (CST #9649) or H3 (CST #4499), at 1:1000 dilution, and PfBiP ([Shonhai et al., 2007]) (at 1:5000 dilution) in 3% milk powder TBS with 0.1% Tween 20 at 4°C overnight and with 800CW goat α-rabbit IgG (Licor) at 1:10,000 dilution. Membranes were visualised using a Licor Odyssey CLX imaging system and quantified using ImageJ.

`CCN(CC)Cc1cc(Nc2ccnc3cc(Cl)ccc23)ccc1O` [Amodiaquine]: the EC50 with P. falciparum 3D7-A10 worked out at 7.4 ± 1.8 nM; in the assay on P. falciparum Dd2-B2 it was 19 ± 6 nM; in assay [1], 21 ± 2.5 nM; in assay [2] it was 20 ± 8.6 nM.

Regarding `C[C@H]1[C@@H](O)O[C@@H]2O[C@@]3(C)CC[C@H]4[C@H](C)CC[C@@H]1[C@@]24OO3` [Dihydroartemisinin], the EC50 in the assay on P. falciparum 3D7-A10 came out at 2.6 ± 1.6 nM; with P. falciparum Dd2-B2, 4.6 ± 3 nM; in assay [1], 5.6 ± 3.5 nM; in assay [2], 3.7 ± 3 nM.

Take `OC(c1cc(C(F)(F)F)nc2c(C(F)(F)F)cccc12)C1CCCCN1` (stereo not shown) [Mefloquine]: the EC50 in the assay on P. falciparum 3D7-A10 came to 18 ± 4.6 nM; in the assay with P. falciparum Dd2-B2, 15 ± 5.7 nM; in assay [1] it was 31 ± 17 nM; in assay [2], 20 ± 11 nM.

As for `CC(/C=C/C(=O)NO)=C\[C@@H](C)C(=O)c1ccc(N(C)C)cc1` [trichostatin A], in assay [3], the “acetylation of H4K8ac, H3K9ac and tetra-acetylated H4 (H4Ac4) histone markers relative to DMSO” value is reported as “significant increase”.

For orientation: EC50 means the concentration needed to bring the measured effect to its halfway point.
